*1 amine or outer side, *2 acyl side, *3 side chain or, on linkers, in order; H or OH if unused. Where a SMILES comes first, the peptide text is derived from it. [ ]: non-standard residue; d: D form. X1 = C=C/C=C/C[C@@H](C)[C@@H](O)[C@@H](C(=O)[*:2])N(C)[*:1]; X3 = C[C@H](C/C=C/Cl)[C@@H](O)[C@@H](C(=O)[*:2])N(C)[*:1]; X2 = C[C@H](C/C=C/I)[C@@H](O)[C@@H](C(=O)[*:2])N(C)[*:1]; NMeL = CN[C@@H](CC(C)C)C(=O)O; NMeV = CN[C@H](C(=O)O)C(C)C; dNMeS = CN[C@H](CO)C(=O)O; Abu = CC[C@H](N)C(=O)O
Test system: concanavalin A-stimulated splenocytes
Assay: Concanavalin A-stimulated splenocyte assay ([3H]thymidine incorporation)
Type: cell-based, BALB/c mice
Details: for potency in immunosuppression compared to cyclosporin A: FIG. 1, concanavalin A stimulated splenocyte assay
Experimental: Male BALB/c mice, at 5 to 7 weeks of age, were sacrificed by CO2 inhalation. Spleens were removed and dissociated by pushing through a nylon cell strainer. The splenocytes were washed in RPMI 1640/5% fetal calf serum (FCS) and pelleted at 400×g. Red blood cells were then lysed by resuspending the cell pellet in ACK lysis buffer (150 mM NH4Cl, 1 mM KHCO3, 0.1 mM EDTA, 3 mL per spleen) for 10 min at room temperature. After pelleting at 400×g, the cells were washed by resuspending in RPMI 1640/5% FCS and repelleting. The cell pellet was resuspended in RPMI 1640/5% FCS and again passed through a cell strainer to remove cell aggregates. The cells were then counted and adjusted to 2×10^6 cells/ml in RPMI 1640/10% FCS/50 μM 2-mercaptoethanol. Cell viability was assessed by Trypan blue staining. […] The cells were cultured in a 37° C. CO2 incubator for 2 days and then pulsed with 1 μCi of [^3H]thymidine for 6 hours. Cells were harvested onto filtermats with a TomTec 96 well plate harvester and lysed with H2O. The filtermat and scintillation fluid were sealed in a plastic sleeve. [^3H]thymidine incorporation was measured with a Wallac Trilux plate counter. Initial screens were done at a fixed value of 100 ng/ml test compound. IC50s were calculated from 7 point concentration-response curves using GraphPad software.

| IC50 (ng/mL), immunosuppressive activity of novel cyclosporin analogue compound | SMILES | potency in immunosuppression compared to cyclosporin A |
| --- | --- | --- |
| 11 ng/mL | CC[C@@H]1NC(=O)[C@H]([C@H](O)[C@H](C)C/C=C/I)N(C)C(=O)[C@H](C(C)C)N(C)C(=O)[C@H](CC(C)C)N(C)C(=O)[C@H](CC(C)C)N(C)C(=O)[C@@H](C)NC(=O)[C@H](C)NC(=O)[C@H](CC(C)C)N(C)C(=O)[C@H](C(C)C)NC(=O)[C@H](CC(C)C)N(C)C(=O)CN(C)C1=O [Example 6, cyclosporin vinyl iodide] | – |
| 7 ng/mL | CC[C@@H]1NC(=O)[C@H]([C@H](O)[C@H](C)C/C=C/I)N(C)C(=O)[C@H](C(C)C)N(C)C(=O)[C@H](CC(C)C)N(C)C(=O)[C@H](CC(C)C)N(C)C(=O)[C@@H](C)NC(=O)[C@H](C)NC(=O)[C@H](CC(C)C)N(C)C(=O)[C@H](C(C)C)NC(=O)[C@H](CC(C)C)N(C)C(=O)CN(C)C1=O [Example 9, trans-deuterated cyclosporin vinyl iodide] | enhanced potency |
| 9 ng/mL | CC[C@@H]1NC(=O)[C@H]([C@H](O)[C@H](C)C/C=C/Br)N(C)C(=O)[C@H](C(C)C)N(C)C(=O)[C@H](CC(C)C)N(C)C(=O)[C@H](CC(C)C)N(C)C(=O)[C@@H](C)NC(=O)[C@H](C)NC(=O)[C@H](CC(C)C)N(C)C(=O)[C@H](C(C)C)NC(=O)[C@H](CC(C)C)N(C)C(=O)CN(C)C1=O [Example 19, trans-cyclosporin vinyl bromide] | – |
| 38 ng/mL | CC[C@@H]1NC(=O)[C@H]([C@H](O)[C@H](C)CC=CC(F)(F)F)N(C)C(=O)[C@H](C(C)C)N(C)C(=O)[C@H](CC(C)C)N(C)C(=O)[C@H](CC(C)C)N(C)C(=O)[C@@H](C)NC(=O)[C@H](C)NC(=O)[C@H](CC(C)C)N(C)C(=O)[C@H](C(C)C)NC(=O)[C@H](CC(C)C)N(C)C(=O)CN(C)C1=O [Example 31, cyclosporin fluoride] | – |
| 12 ng/mL | CC[C@@H]1NC(=O)[C@H]([C@H](O)[C@H](C)CC=CCF)N(C)C(=O)[C@H](C(C)C)N(C)C(=O)[C@H](CC(C)C)N(C)C(=O)[C@H](CC(C)C)N(C)C(=O)[C@@H](C)NC(=O)[C@H](C)NC(=O)[C@H](CC(C)C)N(C)C(=O)[C@H](C(C)C)NC(=O)[C@H](CC(C)C)N(C)C(=O)CN(C)C1=O [Example 34, cyclosporin allylic fluoride] | – |

The remaining lines, values behind:

| SMILES | IC50 (ng/mL), immunosuppressive activity of novel cyclosporin analogue compound | potency in immunosuppression compared to cyclosporin A |
| --- | --- | --- |
| CC[C@@H]1NC(=O)[C@H]([C@H](O)[C@H](C)C/C=C/Cl)N(C)C(=O)[C@H](C(C)C)N(C)C(=O)[C@H](CC(C)C)N(C)C(=O)[C@H](CC(C)C)N(C)C(=O)[C@@H](C)NC(=O)[C@H](C)NC(=O)[C@H](CC(C)C)N(C)C(=O)[C@H](C(C)C)NC(=O)[C@H](CC(C)C)N(C)C(=O)CN(C)C1=O [Example 11, trans-deuterated cyclosporin vinyl chloride] | – | enhanced potency |
| CCON=C/C=C/C[C@@H](C)[C@@H](O)[C@H]1C(=O)N[C@@H](CC)C(=O)N(C)CC(=O)N(C)[C@@H](CC(C)C)C(=O)N[C@@H](C(C)C)C(=O)N(C)[C@@H](CC(C)C)C(=O)N[C@@H](C)C(=O)N[C@H](C)C(=O)N(C)[C@@H](CC(C)C)C(=O)N(C)[C@@H](CC(C)C)C(=O)N(C)[C@@H](C(C)C)C(=O)N1C [Example 58, cyclosporin oxime] | 42 ng/mL | – |
| C=C/C=C/C[C@@H](C)[C@@H](O)[C@H]1C(=O)N[C@@H](CC)C(=O)N(C)[C@H](CO)C(=O)N(C)[C@@H](CC(C)C)C(=O)N[C@@H](C(C)C)C(=O)N(C)[C@@H](CC(C)C)C(=O)N[C@@H](C)C(=O)N[C@H](C)C(=O)N(C)[C@@H](CC(C)C)C(=O)N(C)[C@@H](CC(C)C)C(=O)N(C)[C@@H](C(C)C)C(=O)N1C [Example 67, trans-cyclosporin diene] (cyclo([X1][Abu][dNMeS][NMeL]V[NMeL]A[dA][NMeL][NMeL][NMeV])) | 7 ng/mL | – |
| C=C/C=C/C[C@@H](C)[C@@H](O)[C@H]1C(=O)N[C@@H](CC)C(=O)N(C)[C@H](CO)C(=O)N(C)[C@@H](CC(C)C)C(=O)N[C@@H](C(C)C)C(=O)N(C)[C@@H](CC(C)C)C(=O)N[C@@H](C)C(=O)N[C@H](C)C(=O)N(C)[C@@H](CC(C)C)C(=O)N(C)[C@@H](CC(C)C)C(=O)N(C)[C@@H](C(C)C)C(=O)N1C [Example 69, trans-cyclosporin diene-d2] (cyclo([X1][Abu][dNMeS][NMeL]V[NMeL]A[dA][NMeL][NMeL][NMeV])) | 4 ng/mL | – |
| CC[C@@H]1NC(=O)[C@H]([C@H](O)[C@H](C)C/C=C/Cl)N(C)C(=O)[C@H](C(C)C)N(C)C(=O)[C@H](CC(C)C)N(C)C(=O)[C@H](CC(C)C)N(C)C(=O)[C@@H](C)NC(=O)[C@H](C)NC(=O)[C@H](CC(C)C)N(C)C(=O)[C@H](C(C)C)NC(=O)[C@H](CC(C)C)N(C)C(=O)[C@@H](CO)N(C)C1=O [Example 71, cyclosporin vinyl chloride] (cyclo([X3][Abu][dNMeS][NMeL]V[NMeL]A[dA][NMeL][NMeL][NMeV])) | 8 ng/mL | – |
| CC[C@@H]1NC(=O)[C@H]([C@H](O)[C@H](C)C/C=C/I)N(C)C(=O)[C@H](C(C)C)N(C)C(=O)[C@H](CC(C)C)N(C)C(=O)[C@H](CC(C)C)N(C)C(=O)[C@@H](C)NC(=O)[C@H](C)NC(=O)[C@H](CC(C)C)N(C)C(=O)[C@H](C(C)C)NC(=O)[C@H](CC(C)C)N(C)C(=O)[C@@H](CO)N(C)C1=O [Example 72, cyclosporin vinyl iodide] (cyclo([X2][Abu][dNMeS][NMeL]V[NMeL]A[dA][NMeL][NMeL][NMeV])) | 5 ng/mL | – |
